Values of other authors as cited in patent US20140288899A1, “C[…] OF BINDING FREE ENERGY, C[…] OF BINDING FREE ENERGY, PROGRAM, SCREENING METHOD OF COMPOUND” (FUJITSU LIMITED, priority 2013, published 2014).

How the values were obtained:
FK506 BINDING PROTEIN [1] = target: T1, FK506 BINDING PROTEIN (Homo sapiens, UniProt P62942); conditions: experimental value disclosed in Holt et al., J. Am. Chem. Soc. 1993, 115, 9925-9938
FK506 BINDING PROTEIN [2] = target: T1, FK506 BINDING PROTEIN; conditions: calculation value of Wang et al., Biophysical Journal Vol. 91, 2798-2814; restriction with a spring

T1 sequence (P62942 whole entry): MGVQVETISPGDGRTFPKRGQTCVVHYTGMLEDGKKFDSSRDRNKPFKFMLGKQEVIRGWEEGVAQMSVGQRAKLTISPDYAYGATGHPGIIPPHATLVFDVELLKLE

SMILES: CCC(C)(C)C(=O)C(=O)N1CCCC[C@H]1C(=O)O[C@H](CCc1ccccc1)c1ccccc1 [1fkg, 1,3-DIPHENYL-1-PROPYL-1-(3,3-DIMETHYL-1,2-DIOXYPENTYL)-2-PIPERIDINE CARBOXYLATE]
- binding free energy, experimental value (FK506 BINDING PROTEIN [1]): -10.9 kcal/mol
- binding free energy, calculation result of Comparative Example (FK506 BINDING PROTEIN [2]): -10.3 kcal/mol
